Source: patent US11110105B2, “Compounds, composition and uses thereof for treating cancer” (INSTITUT GUSTAVE ROUSSY, priority 2017, dated 2021)
Entries after “also recorded” stand apart in the source; their conditions may differ.

Legend:
[1] = MTT assay on A375 cell line; assay type: cell-based; details: human, A375 melanoma cells, read-out: % cell viability (±SEM)
Method: MCA205 mouse sarcoma cell line is cultured at 37° C. under 5% CO2 in RPMI 1640 medium (Life Technologies) in the presence of 1% glutamine, 1% sodium pyruvate, 1% non-essential amino-acids, 1% penicillin/streptomycin and 10% FBS (Life Technologies) under standard conditions. B16F10 mouse melanoma cell line, MRC5 human fibroblast cell line and A375 human melanoma cell line are cultured at 37° C. under 5% CO2 in DMEM medium (Life Technologies) containing 1% glutamine, 1% penicillin/streptomycin and 10% FCS under standard conditions. A549 human lung carcinoma cell line is cultured at 37° C. under 5% CO2 in DMEM/F12+Glutamax I in the presence of 1% Hepes, 1% sodium pyruvate and 10% FBS under standard conditions. Stable MCA205-Globin-SL8-intron cell line are cultured under the same condition as MCA205 cell line with additional 2 mg/ml G418 (geneticin from Life Technologies) for selection. Stable B16F10-Globin-SL8-intron cell line are cultured under the same condition as B16F10 cell line with additional 2 mg/ml G418 (geneticin from Life Technologies) for selection. The SL8/Kb-specific (B3Z) T-cell reporter hybridoma are cultured at 37° C. under 5% CO2 in RPMI 1640 medium (Life Technologies) in the presence of 1% glutamine, 0.1% β-galactosidase, 1% penicillin/streptomycin and 10% FCS under standard conditions. […]

[2] = MTT viability, human cells (text summary of table 1); assay type: cell-based; details: concentrations used (2.5 and 6.25 μM), A375, A549, MRC5, read-out: viability of human cells upon treatment
From the text: Cancer cells display different intracellular mechanisms that can shape the pool and the quantity of peptides presented on MHC class I (MHC-I) molecules at their surface, leading to reduction of their antigenicity and escape of T-cell recognition. Inventors have shown that PTPs are a major source of peptides for the endogenous MHC-I pathway in vitro. In addition, they have provided the first proof of the positive impact of splicing inhibition on PTPs-dependent antigen presentation by treating HEK cells with the splicing inhibitor isoginkgetin. The latter has been reported to inhibit the spliceosome during the early stages of its assembly. In view to improve antigenicity and immune recognition of cancer cell lines, inventors determined whether isoginkgetin was able to modulate positively the expression and the presentation of tumor associated PTPs-derived antigens (TA-PTPs) at cancer cells surface. For that purpose, the human melanoma cell line A375, the human lung cancer cell line A549 and the normal human fibroblast lung cell line MRC5 were transiently expressing the MHC-I H2-K^b molecule and the PTPs-SL8 epitope from an intron within the β-Globin gene construct (Globin-SL8-intron) and treated with different concentrations of isoginkgetin for 18 h. […]

[3] = MTT viability, mouse cell lines (text summary of table 2); assay type: cell-based; details: MCA205 sarcoma and B16F10 melanoma cells, MCA205 and B16F10, 6.25-25 μM, read-out: cell viability at efficient doses
Method: In parallel, the same experiment was performed on the mouse melanoma B16F10 and sarcoma MCA205 cell lines that were transiently expressing the Globin-SL8-intron construct. […] Efficient doses lead to cell viability over 50% in these cell lines (table 2).
MTT assay on MCA205 and B16F10 cell lines treated with 6.25 μM, 15 μM or 25 μM of isoginkgetin. Dare are given as the mean of the percentage of cell viability ±SEM from at least three independent experiments.

MCA205 WT tumors = experiment: Tumor challenge, MCA205 WT in immunodeficient Nu/Nu nude mice; assay type: in vivo, mouse; details: 18 mg/kg intraperitoneally, days 5, 10 and 15
Method: (A) Experimental settings. Growth of (B) sarcoma MCA205 or (C) melanoma B16F10 cells that both stably express the globin-SL8-intron construct or (D) MCA205 Wild Type (WT) or (E) B16F10 WT cells that were subcutaneously inoculated on the flank of immunocompetent C57BL/6 mice injected intraperitoneally with 12 mg/kg or 18 mg/kg of isoginkgetin at days 5, 10 and 15 after inoculation. Tumor size was assessed every 3 to 4 days until reaching the established ethical endpoints. Each line represents the tumor size in area (mm^2) of 6 mice in each group. Size in area (mm^2) of (F) MCA205 globin-SL8-intron, (G) B16F10 globin-SL8-intron, (H) MCA205 WT or (I) B16F10 WT tumors subcutaneously inoculated on the flank of immunodeficient Nu/Nu Nude mice injected intraperitoneally with 18 mg/kg of isoginkgetin at days 5, 10 and 15 after inoculation. Data are presented at the day before the endpoints are reached.
Each line represents the tumor size in area (mm^2) of at least 6 mice in each group. The C right panel represents the tumor size at day 27. […]
Inventors then assessed the requirement of the immune response for isoginkgetin to reduce tumor growth Immunodeficient Nu/Nu nude mice were inoculated subcutaneously with either MCA205 or B16F10 cells that stably express the Globin-intron-SL8 or WT, and were treated with the same settings as previously described (FIG. 9A). […]

[4] = tested on: H2-K^b molecules at the cell surface of MCA205 cells; experiment: Flow cytometry of H2-K^b expression, MCA205; assay type: cell-based, mouse
From the text: Flow cytometry analyses of H2-K^b expression on MCA205 and B16F10 cells treated with (A) isoginkgetin. Flow cytometry analyses of transiently expressed H2-K^b expression on A375, A549 and MRC5 cells treated with (B) isoginkgetin.

[5] = tested on: splicing of the Globin-SL8-intron gene product in B16F10 cells; experiment: qRT-PCR of unspliced/spliced globin-SL8-intron RNA, B16F10; assay type: cell-based, mouse; details: 15 μM isoginkgetin, 35 μM IP2 or 35 μM M2P2, 48 hours
Method: RNA was extracted and qRT-PCR was performed with primers amplifying the unspliced (intron) and the spliced (exon) globin-SL8-intron RNA. Data are given as mean ±SEM of the ratio of 2^−ΔΔCt intron and 2^−ΔΔCt exon of at least three independent experiments. […] Data are express as mean ±SEM of the percentage of viable cells compared to the control condition of at least three independent experiments. *P<0.05, **P<0.01, ***P<0.001 (unpaired student t test).
In addition, it has been shown that cancer cells can acquire deficiencies in the splicing machinery that benefit their growth, for example by preventing the expression of tumor suppressor genes.

COc1ccc(-c2cc(=O)c3c(O)cc(O)c(-c4cc(-c5cc(=O)c6c(O)cc(O)cc6o5)ccc4OC)c3o2)cc1 [Isoginkgetin, isoginkgetin]
viability at 2.5 µM ([1]; A375, 2.5 μM): 100%
viability at 6.25 µM ([1]; A375, 6.25 μM): 100%
viability [2]: > 80%
viability [3]: > 50%
tumor growth (MCA205 WT tumors): No effect

COc1ccc(-c2cc(=O)c3c(OC)cc(OP(=O)([O-])[O-])c(-c4cc(-c5cc(=O)c6c(OC)cc(OP(=O)([O-])[O-])cc6o5)ccc4OC)c3o2)cc1.[Na+].[Na+].[Na+].[Na+] [IM2P2]
expression of the H2-K^b molecules at the cell surface [4]: is not affected
splicing of Globin-SL8-intron RNA (ratio unspliced/spliced, qRT-PCR) [5]: does not impact splicing; also recorded: no impact
